Laboratory results from patent US10654831B2, “Antiproliferative pyrimidine-based compounds” (G1 Therapeutics, Inc., priority 2016, dated 2020).

How the values were obtained:
Format in all cases: biochemical
CDK4/CycD = CDK4/CycD (Homo sapiens (Human), UniProt P11802); assay: CDK4/CycD kinase assay (Caliper microfluidic); conditions: at Km for ATP
Description: (§1) Selected compounds disclosed herein were tested in CDK4/cyclinD1, CDK2/CycA and CDK2/cyclinE kinase assays by Nanosyn (Santa Clara, Calif.) to determine their inhibitory effect on these CDKs. The assays were performed using microfluidic kinase detection technology (Caliper Assay Platform). The compounds were tested in 12-point dose-response format in singlicate at Km for ATP. Phosphoacceptor substrate peptide concentration used was 1 μM for all assays and Staurosporine was used as the reference compound for all assays. Specifics of each assay are as described below:
CDK4/CyclinD1: Enzyme concentration: 1 nM; ATP concentration: 200 μM; Incubation time: 10 hr.

CDK6/CycD3 = CDK6/CycD3 (Homo sapiens (Human), UniProt Q00534); assay: CDK6/CycD3 kinase assay
Sequence of CDK6/CycD3 (Q00534 whole entry): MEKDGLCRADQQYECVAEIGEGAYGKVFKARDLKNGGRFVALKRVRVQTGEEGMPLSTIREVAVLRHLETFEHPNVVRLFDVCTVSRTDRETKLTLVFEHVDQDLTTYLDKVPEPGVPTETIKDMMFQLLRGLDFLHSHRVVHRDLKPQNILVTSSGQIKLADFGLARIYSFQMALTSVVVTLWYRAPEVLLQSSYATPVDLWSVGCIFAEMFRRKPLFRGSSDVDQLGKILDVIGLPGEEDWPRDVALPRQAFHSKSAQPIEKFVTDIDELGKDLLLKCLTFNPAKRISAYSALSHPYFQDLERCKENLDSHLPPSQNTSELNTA
Sequence of CDK6/CycD3 (P30281 whole entry partner): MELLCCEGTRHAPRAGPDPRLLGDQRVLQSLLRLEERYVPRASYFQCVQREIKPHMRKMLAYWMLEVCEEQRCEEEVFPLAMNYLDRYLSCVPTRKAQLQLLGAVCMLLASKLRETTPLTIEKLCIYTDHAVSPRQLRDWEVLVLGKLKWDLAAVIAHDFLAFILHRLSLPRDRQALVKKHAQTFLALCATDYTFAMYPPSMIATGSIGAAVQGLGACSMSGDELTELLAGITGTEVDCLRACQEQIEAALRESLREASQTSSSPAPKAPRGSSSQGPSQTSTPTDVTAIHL
Description: [The procedure below names another target; the source lists this target under the same test.] as §1, with “assays.” for “assays. Specifics of each assay are as described below:”

CDK2/CycE = CDK2/CycE (Homo sapiens (Human), UniProt P24941); assay: CDK2/CycE kinase assay (Caliper microfluidic); conditions: at Km for ATP
Description: as §1
CDK2/CyclinE: Enzyme concentration: 0.28 nM; ATP concentration: 100 μM; Incubation time: 1 hr.

CDK2/CycA = CDK2/CycA (Homo sapiens (Human), UniProt P24941); assay: CDK2/CycA kinase assay (Caliper microfluidic); conditions: at Km for ATP
Description: as §1
CDK2/CyclinA: Enzyme concentration: 0.2 nM; ATP concentration: 50 μM; Incubation time: 3 hr.

CDK5/p35 = CDK5/p35 (Homo sapiens (Human), UniProt Q00535); assay: CDK5/p35 kinase assay
Sequence of CDK5/p35 (Q00535 whole entry): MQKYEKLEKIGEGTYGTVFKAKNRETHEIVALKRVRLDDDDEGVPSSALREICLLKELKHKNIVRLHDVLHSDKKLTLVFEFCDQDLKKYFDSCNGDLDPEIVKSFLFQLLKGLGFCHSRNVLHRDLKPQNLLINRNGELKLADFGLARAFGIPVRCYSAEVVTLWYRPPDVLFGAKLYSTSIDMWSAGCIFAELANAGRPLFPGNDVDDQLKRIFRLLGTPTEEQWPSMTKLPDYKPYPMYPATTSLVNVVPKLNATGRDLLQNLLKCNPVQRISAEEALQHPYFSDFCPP
Sequence of CDK5/p35 (Q15078 whole entry partner): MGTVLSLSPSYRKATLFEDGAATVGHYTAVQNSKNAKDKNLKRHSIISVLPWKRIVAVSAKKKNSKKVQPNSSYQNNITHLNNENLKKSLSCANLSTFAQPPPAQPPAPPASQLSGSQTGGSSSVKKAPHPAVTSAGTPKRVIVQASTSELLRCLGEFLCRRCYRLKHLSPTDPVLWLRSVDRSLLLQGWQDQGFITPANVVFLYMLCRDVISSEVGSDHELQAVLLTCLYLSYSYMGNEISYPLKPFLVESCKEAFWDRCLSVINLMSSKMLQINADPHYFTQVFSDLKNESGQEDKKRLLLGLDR

CDK5/p25 = CDK5/p25 (Homo sapiens (Human), UniProt Q00535); assay: CDK5/p25 kinase assay
Sequence of CDK5/p25 (Q00535 whole entry): as the sequence (Q00535 whole entry) above

CDK7/CycH/MAT1 = CDK7/CycH/MAT1 (Homo sapiens (Human), UniProt P50613); assay: CDK7/CycH/MAT1 kinase assay
Sequence of CDK7/CycH/MAT1 (P50613 whole entry): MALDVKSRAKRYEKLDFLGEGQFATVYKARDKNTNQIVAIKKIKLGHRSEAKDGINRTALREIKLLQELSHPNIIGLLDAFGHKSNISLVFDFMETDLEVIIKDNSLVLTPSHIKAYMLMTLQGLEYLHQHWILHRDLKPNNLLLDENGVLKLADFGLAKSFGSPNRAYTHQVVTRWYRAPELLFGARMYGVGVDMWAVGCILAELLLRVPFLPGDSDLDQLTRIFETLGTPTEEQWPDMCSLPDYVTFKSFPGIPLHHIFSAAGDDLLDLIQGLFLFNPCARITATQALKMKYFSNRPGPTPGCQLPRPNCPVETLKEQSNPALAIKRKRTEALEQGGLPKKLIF
Sequence of CDK7/CycH/MAT1 (P51946 whole entry partner): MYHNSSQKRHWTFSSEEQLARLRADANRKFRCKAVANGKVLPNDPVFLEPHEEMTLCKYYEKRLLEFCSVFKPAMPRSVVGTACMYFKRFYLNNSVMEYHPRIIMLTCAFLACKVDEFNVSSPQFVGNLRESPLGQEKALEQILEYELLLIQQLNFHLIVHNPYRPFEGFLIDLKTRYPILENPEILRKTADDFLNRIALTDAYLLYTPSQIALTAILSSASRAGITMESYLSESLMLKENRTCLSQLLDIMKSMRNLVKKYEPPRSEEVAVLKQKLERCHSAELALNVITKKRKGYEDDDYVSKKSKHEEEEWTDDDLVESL
Sequence of CDK7/CycH/MAT1 (P51948 whole entry partner): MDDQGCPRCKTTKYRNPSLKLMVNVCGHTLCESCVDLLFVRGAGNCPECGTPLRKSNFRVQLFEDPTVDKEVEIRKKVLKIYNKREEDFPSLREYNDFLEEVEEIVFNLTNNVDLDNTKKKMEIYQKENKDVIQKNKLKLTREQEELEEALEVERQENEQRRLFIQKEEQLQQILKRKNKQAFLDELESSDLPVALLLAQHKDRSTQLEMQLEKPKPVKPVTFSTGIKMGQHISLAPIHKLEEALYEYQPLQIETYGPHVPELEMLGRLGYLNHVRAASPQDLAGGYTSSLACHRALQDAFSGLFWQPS

CDK9/CycT = CDK9/CycT (Homo sapiens (Human), UniProt P50750); assay: CDK9/CycT kinase assay
Sequence of CDK9/CycT (P50750 whole entry): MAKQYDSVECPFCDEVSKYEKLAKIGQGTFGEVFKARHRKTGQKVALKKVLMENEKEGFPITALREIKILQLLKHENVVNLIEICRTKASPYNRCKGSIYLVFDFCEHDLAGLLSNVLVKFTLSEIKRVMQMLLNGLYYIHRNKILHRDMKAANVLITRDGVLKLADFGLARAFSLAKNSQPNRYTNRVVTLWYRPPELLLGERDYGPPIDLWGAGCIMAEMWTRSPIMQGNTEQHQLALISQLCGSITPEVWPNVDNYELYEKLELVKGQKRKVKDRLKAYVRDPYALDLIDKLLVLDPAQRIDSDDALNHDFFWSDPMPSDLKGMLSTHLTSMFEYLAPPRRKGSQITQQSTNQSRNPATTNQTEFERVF
Sequence of CDK9/CycT (O60563 whole entry partner): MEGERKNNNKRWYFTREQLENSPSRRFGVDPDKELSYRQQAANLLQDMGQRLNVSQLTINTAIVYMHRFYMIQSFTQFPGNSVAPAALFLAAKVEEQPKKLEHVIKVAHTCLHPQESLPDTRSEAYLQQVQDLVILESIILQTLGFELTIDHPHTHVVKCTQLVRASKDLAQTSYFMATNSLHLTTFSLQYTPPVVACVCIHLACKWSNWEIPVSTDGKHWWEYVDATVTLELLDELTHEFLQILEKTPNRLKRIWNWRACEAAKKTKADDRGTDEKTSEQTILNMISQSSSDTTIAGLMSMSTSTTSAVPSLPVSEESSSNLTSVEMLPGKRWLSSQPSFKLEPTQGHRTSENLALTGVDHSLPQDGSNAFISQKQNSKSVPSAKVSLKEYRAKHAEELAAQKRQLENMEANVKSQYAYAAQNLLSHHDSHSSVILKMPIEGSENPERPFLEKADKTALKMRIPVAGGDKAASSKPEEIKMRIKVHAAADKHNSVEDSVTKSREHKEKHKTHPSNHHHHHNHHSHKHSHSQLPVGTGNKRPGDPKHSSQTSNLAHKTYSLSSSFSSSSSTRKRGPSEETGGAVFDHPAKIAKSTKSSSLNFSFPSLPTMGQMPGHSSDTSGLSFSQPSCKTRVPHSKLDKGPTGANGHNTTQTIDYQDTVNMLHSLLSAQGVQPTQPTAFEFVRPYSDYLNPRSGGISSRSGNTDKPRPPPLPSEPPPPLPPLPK

Sequence of CDK4/CycD (P11802 whole entry): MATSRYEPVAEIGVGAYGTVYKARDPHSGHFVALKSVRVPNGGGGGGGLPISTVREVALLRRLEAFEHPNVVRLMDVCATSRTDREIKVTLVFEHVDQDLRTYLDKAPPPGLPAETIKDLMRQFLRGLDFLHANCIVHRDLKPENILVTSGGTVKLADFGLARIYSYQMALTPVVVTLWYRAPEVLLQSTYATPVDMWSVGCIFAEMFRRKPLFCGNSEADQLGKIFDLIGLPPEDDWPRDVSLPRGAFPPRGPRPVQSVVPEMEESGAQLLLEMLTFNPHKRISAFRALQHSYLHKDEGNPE
Sequence of CDK4/CycD (P24385 whole entry partner): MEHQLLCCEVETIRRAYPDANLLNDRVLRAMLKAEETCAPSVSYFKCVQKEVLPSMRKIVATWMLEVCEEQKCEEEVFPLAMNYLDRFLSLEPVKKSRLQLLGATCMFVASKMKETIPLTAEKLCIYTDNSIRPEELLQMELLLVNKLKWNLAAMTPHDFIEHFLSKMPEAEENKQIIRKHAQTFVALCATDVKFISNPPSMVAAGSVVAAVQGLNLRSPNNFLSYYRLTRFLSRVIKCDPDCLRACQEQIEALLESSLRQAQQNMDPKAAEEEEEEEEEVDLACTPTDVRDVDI

CC(C)[C@H]1CNC(=O)N1c1ccnc(Nc2ccc(N3CCN(C)CC3)cn2)n1 [compound 46, (5S)-5-Isopropyl-1-(2-{[5-(4-methylpiperazin-1-yl)pyridin-2-yl]amino}pyrimidin-4-yl)imidazolidin-2-one]
IC50 (CDK4/CycD): 761 nM | IC50 (CDK6/CycD3): 3.3 µM | IC50 (CDK2/CycE): 23 µM | IC50 (CDK2/CycA): 9.7 µM

C[C@H]1CNC(=O)CN1c1ccnc(Nc2ccc(N3CCN(C)CC3)cn2)n1 [compound 40, (5S)-5-Methyl-4-(2-{[5-(4-methylpiperazin-1-yl)pyridin-2-yl]amino}pyrimidin-4-yl)piperazin-2-one]
IC50 (CDK4/CycD): 1700 nM | IC50 (CDK6/CycD3): 5.7 µM | IC50 (CDK2/CycE): 71 µM | IC50 (CDK2/CycA): 88 µM

CC(C)C1CC(=O)NN1c1ccnc(Nc2ccc(N3CCN(C)CC3)cn2)n1 (stereo not shown) [compound 28, 5-Isopropyl-1-(2-{[5-(4-methylpiperazin-1-yl)pyridin-2-yl]amino}pyrimidin-4-yl)pyrazolidin-3-one]
IC50 (CDK4/CycD): > 100000 nM | IC50 (CDK6/CycD3): > 100 µM

CN1CCN(c2ccc(Nc3nccc(N4C(=O)N(C)CC45CCCCC5)n3)nc2)CC1 [compound 8, 3-Methyl-1-(2-{[5-(4-methylpiperazin-1-yl)pyridin-2-yl]amino}pyrimidin-4-yl)-1,3-diazaspiro[4.5]decan-2-one]
IC50 (CDK4/CycD): 3270 nM | IC50 (CDK6/CycD3): 16.2 µM | IC50 (CDK2/CycE): > 100 µM | IC50 (CDK2/CycA): > 100 µM | IC50 (CDK5/p35): > 100 µM | IC50 (CDK5/p25): > 100 µM | IC50 (CDK7/CycH/MAT1): > 100 µM | IC50 (CDK9/CycT): > 100 µM

CN1CCN(c2ccc(Nc3nccc(N4CCNC4=O)n3)nc2)CC1 [compound 16, 1-(2-{[5-(4-methylpiperazin-1-yl)pyridin-2-yl]amino}pyrimidin-4-yl)imidazolidin-2-one]
IC50 (CDK4/CycD): 8100 nM | IC50 (CDK6/CycD3): 3.4 µM | IC50 (CDK2/CycE): > 100 µM | IC50 (CDK2/CycA): > 100 µM | IC50 (CDK5/p35): 73 µM | IC50 (CDK5/p25): 95 µM | IC50 (CDK7/CycH/MAT1): 29.4 µM | IC50 (CDK9/CycT): 9.3 µM

CC[C@H]1CC(=O)NN1c1ccnc(Nc2ccc(N3CCN(C)CC3)cn2)n1 [compound 56, (S)-5-ethyl-1-(2-((5-(4-methylpiperazin-1-yl)pyridin-2-yl)amino)pyrimidin-4-yl)pyrazolidin-3-one]
IC50 (CDK4/CycD): 4000 nM | IC50 (CDK6/CycD3): 33 µM | IC50 (CDK2/CycE): > 100 µM | IC50 (CDK2/CycA): > 100 µM

CN1CCN(c2ccc(Nc3nccc(N4CCNC(=O)C4)n3)nc2)CC1 [compound 32, 4-(2-{[5-(4-Methylpiperazin-1-yl)pyridin-2-yl]amino}pyrimidin-4-yl)piperazin-2-one]
IC50 (CDK4/CycD): 14400 nM | IC50 (CDK6/CycD3): 51 µM | IC50 (CDK9/CycT): 22.9 µM

C[C@H]1CNC(=O)N1c1ccnc(Nc2ccc(N3CCN(C)CC3)cn2)n1 [compound 52, (5S)-5-methyl-1-(2-{[5-(4-methylpiperazin-1-yl)pyridin-2-yl]amino}pyrimidin-4-yl)imidazolidin-2-one]
IC50 (CDK4/CycD): 1500 nM | IC50 (CDK6/CycD3): 4 µM | IC50 (CDK2/CycE): 57 µM | IC50 (CDK2/CycA): 35.5 µM

CN1CCN(c2ccc(Nc3nccc(N4C(c5ccsc5)=NCC45CCCCC5)n3)nc2)CC1 [compound 55, N-(5-(4-methylpiperazin-1-yl)pyridin-2-yl)-4-(2-(thiophen-3-yl)-1,3-diazaspiro[4.5]dec-2-en-1-yl)pyrimidin-2-amine]
IC50 (CDK4/CycD): > 100000 nM | IC50 (CDK6/CycD3): > 100 µM | IC50 (CDK2/CycE): > 100 µM | IC50 (CDK2/CycA): > 100 µM | IC50 (CDK5/p35): > 100 µM | IC50 (CDK5/p25): > 100 µM | IC50 (CDK7/CycH/MAT1): > 100 µM | IC50 (CDK9/CycT): > 100 µM

CN1CCN(c2ccc(Nc3nccc(N4C(c5ccoc5)=NCC45CCCCC5)n3)nc2)CC1 [compound 54, 4-(2-(furan-3-yl)-1,3-diazaspiro[4.5]dec-2-en-1-yl)-N-(5-(4-methylpiperazin-1-yl)pyridin-2-yl)pyrimidin-2-amine]
IC50 (CDK4/CycD): > 100000 nM | IC50 (CDK6/CycD3): > 100 µM | IC50 (CDK2/CycE): > 100 µM | IC50 (CDK2/CycA): > 100 µM | IC50 (CDK5/p35): > 100 µM | IC50 (CDK5/p25): > 100 µM | IC50 (CDK7/CycH/MAT1): > 100 µM | IC50 (CDK9/CycT): > 100 µM

CN1CCN(c2ccc(Nc3nccc(N4C(=O)NCC45CCCCC5)n3)nc2)CC1 [compound 6, 1-(2-{[5-(4-methylpiperazin-1-yl)pyridin-2-yl]amino}pyrimidin-4-yl)-1,3-diazaspiro[4.5]decan-2-one]
IC50 (CDK4/CycD): 1000 nM | IC50 (CDK6/CycD3): 4.98 µM | IC50 (CDK2/CycE): > 100 µM | IC50 (CDK2/CycA): > 100 µM | IC50 (CDK5/p35): > 100 µM | IC50 (CDK5/p25): > 100 µM | IC50 (CDK7/CycH/MAT1): 95.9 µM | IC50 (CDK9/CycT): 9.63 µM

CN1CCN(c2ccc(Nc3nccc(N4C(c5ccccc5)=NCC45CCCCC5)n3)nc2)CC1 [compound 53, N-(5-(4-methylpiperazin-1-yl)pyridin-2-yl)-4-(2-phenyl-1,3-diazaspiro[4.5]dec-2-en-1-yl)pyrimidin-2-amine]
IC50 (CDK4/CycD): > 100000 nM | IC50 (CDK6/CycD3): 71.3 µM | IC50 (CDK2/CycE): > 100 µM | IC50 (CDK2/CycA): > 100 µM | IC50 (CDK5/p35): > 100 µM | IC50 (CDK5/p25): > 100 µM | IC50 (CDK7/CycH/MAT1): > 100 µM | IC50 (CDK9/CycT): > 100 µM

CN1CCN(c2ccc(Nc3nccc(N4CC(=O)NCC45CCCCC5)n3)nc2)CC1 [compound 20, 1-(2-{[5-(4-Methylpiperazin-1-yl)pyridin-2-yl]amino}pyrimidin-4-yl)-1,4-diazaspiro[5.5]undecan-3-one]
IC50 (CDK4/CycD): 440 nM | IC50 (CDK6/CycD3): 1 µM | IC50 (CDK2/CycE): > 100 µM | IC50 (CDK2/CycA): > 100 µM | IC50 (CDK5/p35): 38 µM | IC50 (CDK5/p25): 39 µM | IC50 (CDK7/CycH/MAT1): > 100 µM | IC50 (CDK9/CycT): 0.75 µM

CN1CCN(c2ccc(Nc3nccc(N4C(=O)N(Cc5ccccc5)CC45CCCCC5)n3)nc2)CC1 [compound 10, 3-benzyl-1-(2-{[5-(4-methylpiperazin-1-yl)pyridin-2-yl]amino}pyrimidin-4-yl)-1,3-diazaspiro[4.5]decan-2-one]
IC50 (CDK4/CycD): 2710 nM | IC50 (CDK6/CycD3): 35.8 µM | IC50 (CDK2/CycE): > 100 µM | IC50 (CDK2/CycA): > 100 µM | IC50 (CDK5/p35): > 100 µM | IC50 (CDK5/p25): > 100 µM | IC50 (CDK7/CycH/MAT1): > 100 µM | IC50 (CDK9/CycT): > 100 µM
